The record followed here is US20080009025A1, “PROTEIN KINASE REGULATION” (priority 1999, published 2008).

For one assay, the system named is PKBα. Put plainly: IGF1-induced activation and Ser473 phosphorylation of HA-PKBα in co-transfected 293 cells. The class given is cell-based, human. The procedure:
FIG. 4. […] 293 cells were co-transfected with constructs expressing the wild type full length HA-PKBα with either GST-PIF or GST. 24 h post transfection the cells were serum starved for 16 h and then stimulated for 15 min with 100 nM IGF1. The cells were lysed and HA-PKBα was immunoprecipitated and assayed as described in Methods. Protein from each lysate (10 μg) was electrophoresed on a 10% SDS/polyarylamide gel and immunoblotted using HA-antibody or the S473-P antibody. The HA-PKBα activities shown are the averages ±SEM for a single experiment carried out in triplicate, similar results were obtained in 3 separate experiments.
293 cells cultured on 10 cm diameter dishes in Dulbecco's Modified Eagle's Medium containing 10% (by vol) foetal bovine serum, were transfected with 2 μg of DNA construct encoding either wild type or mutant HA-p70 S6K or HA-PKBα, and 10 μg of DNA construct encoding either GST-PIF, GST-F977A-PIF, GST, Myc-PDK1, kinase-dead Myc-PDK1, or the empty pCMV5 vector using a modified calcium phosphate method. 24 h post transfection the cells were deprived of serum for 16 h, and exposed to IGF1 (100 nM) for the time indicated. […] The protein concentrations of the lysates were determined by the Bradford method. […]

The test system of a further assay is p70 S6K. Briefly: IGF1-induced activation and Thr412 phosphorylation of HA-p70 S6K in co-transfected 293 cells. The class given is cell-based, human. The procedure:
FIG. 3. PIF inhibits p70 S6K activation and phosphorylation at Thr252 and Thr412. 293 cells were co-transfected with constructs expressing the wild type (wt) full length HA-p70 S6K (A) or the full length HA-T412E p70 S6K (B) with either GST-PIF, GST-F977A-PIF, or GST. 24 h post transfection the cells were serum starved for 16 h and them stimulated for 40 min with 100 nM IGF 1. The cells were lysed and HA-p70 S6K was immunoprecipitated and assayed as described in methods. Protein from each lysate (10 μg for the HA blots or 20 μg for the T412-P blot) was electrophoresed on a 10% SDS/polyacrylamide gel and immunoblotted using HA-antibody or the T412-P antibody. The T412-P antibody was incubated with either the synthetic peptide (10 μg/ml) corresponding to residues 401 to 418 of p70 S6K phosphorylated at Thr412 (phosph-412E peptide), or the unphosphorylated peptide (de-phospho-Thr412 peptide). The T412-P antibody consistently recognises a protein termed “non specific band” in cell lysates which migrate at (75 kDa) derived from non transfected and transfected cells. […] It is not co-immunoprecipitated with HA-p70 S6K (date not shown). The HA-p70 S6K activities shown are the average ±SEM for a single experiment carried out in triplicate. Similar results were obtained in 8 separate experiments (A) and 2 experiments (B). The immunoblotting was carried out in 3 separate experiments with similar results.
Transient Transfection Experiments. The DNA constructs encoding for the wild type and mutant forms of HA-p70 S6K in the pMT2 vector used in this study have been described previously. […] The constructs used to express GST-PIF and the mutant GST-F977A-PIF [22] are in the pEBG2T vector. The empty pEBG2T vector was used to express GST protein in control experiments. DNA constructs used in this study were purified from bacteria using the Qiagen plasmid Mega kit according to the manufacturer's protocol.
293 cells cultured on 10 cm diameter dishes in Dulbecco's Modified Eagle's Medium containing 10% (by vol) foetal bovine serum, were transfected with 2 μg of DNA construct encoding either wild type or mutant HA-p70 S6K or HA-PKBα, and 10 μg of DNA construct encoding either GST-PIF, GST-F977A-PIF, GST, Myc-PDK1, kinase-dead Myc-PDK1, or the empty pCMV5 vector using a modified calcium phosphate method. 24 h post transfection the cells were deprived of serum for 16 h, and exposed to IGF1 (100 nM) for the time indicated. The cells were lysed in 1 ml of lysis buffer (50 mM Tris/HCl pH 7.5, 1 mM EDTA, 1 mM EGTA, 1% (by vol) Triton X-100, 1 mM sodium orthovanadate, 10 mM sodium β-glycerophosphate, 50 mM NaF, 5 mM sodium pyrophosphate, 1 μM microcystin-LR, 0.27 M sucrose and protease cocktail tablets), cleared by centrifugation, and 50 μg of protein was subjected to immunoprecipitation with anti HA monoclonal antibody. The protein concentrations of the lysates were determined by the Bradford method.
Kinase assays. The HA-p70 S6K or HA-PKBα immunoprecipitates were washed and assayed for kinase activity using the peptide Crosstide (GRPRTSSFAEG) as described previously for PKBα [28]. One unit of activity, U, was that amount which catalysed the phosphorylation of 1 nmol of substrate in one minute.
Immunoblotting for dephosphorylated and Thr412-phosphorylated p70 S6 kinase. Cell lysates were made 1% SDS and the indicated amounts of protein were subjected to SDS/Polyacrylamide gel electrophoresis, subsequently transferred to nitrocellulose and immunoblotted using the indicated monoclonal antibody or the T412-P phospho-specific antibody (0.4 μg/ml) in 50 mM Tris/HCl pH7.5, 0.15M NaCl, 0.5% (by vol) Tween and 10% (by mass) skimmed milk. Detection was performed using the enhanced chemiluminescence reagent (Amersham Pharmacia Biotech).

On to “GST-PIF: glutathione S-transferase fused to the last 77 residues of PRK2 (PIF)”, for which the “IGF1-induced phosphorylation of HA-PKBα at Ser473” value in the assay on PKBα is on record as “did not inhibit or potentiate”. For the same substance, the “basal HA-p70 S6K activity” value with p70 S6K (293 cells co-expressing HA-p70 S6K, unstimulated) is on record as “virtually undetectable”. Besides, in the assay with p70 S6K (293 cells, 100 nM IGF1 40 min), the “HA-p70 S6K activity after IGF1 stimulation” value is recorded as “only a very slight increase”. Also, the “IGF1-induced phosphorylation of HA-p70 S6K at Thr412” value with p70 S6K (293 cells, T412-P antibody) was “failed to induce”. The “IGF1 induced activation and phosphorylation at Thr412 of the p70 S6K-T2 mutant” value in the assay with p70 S6K (293 cells, data not shown) is given as “abolished”.
